Experimental data published in patent US5776427A, “Methods for targeting the vasculature of solid tumors” (Board of Regents, The University of Texas System, priority 1995, dated 1998).
Entries after “also recorded” stand apart in the source; their conditions may differ. Structures can show the parent of a compound that is named as a salt.

System: Ia^d on colonic endothelium and epithelium
Assay: Ia^d expression and anti-Ia^d antibody localization in the gut of BALB/c nu/nu mice given oral tetracycline-HCl (indirect immunoperoxidase staining)
Format: in vivo, mouse
Procedure: BALB/c nu/nu mice were purchased from Simonsen (Gilroy, Calif.). SCID mice were from the UT Southwestern Medical Center breeding colony. All animals were maintained in microisolation units on sterilized food and water. Where indicated, tetracycline-HCI (Vedeo, St. Joseph, Mo.) was added to drinking water to a final concentration of 1.1 mg/ml (Harkness et al., 1983). Both strains carry the H-2^d haplotype.
For the establishment of solid tumors, a total of 2×10^7 C1300 or C1300 (Muγ) cells, or a mixture of the two, in 200 μl MEM-30% FCS were injected subcutaneously into the right anterior flank of BALB/c nu/nu or SCID mice. Tumor diameters were measured at regular intervals and the animals were euthanized after 16 days (rapidly-growing tumors) or 20 days (slowly-growing tumors). Tumors and normal tissues were excised immediately and snap-frozen over liquid nitrogen. Normal tissues were also harvested from non-tumor-bearing animals. Antibody localization studies were performed in animals bearing 1 cm subcutaneous tumors induced by injection of C1300 and C1300 (Muγ) in the ratio 7:3. One hundred micrograms of unconjugated M5/114 or CAMPATH-2 antibodies or 100 μg biotinylated 11-4.1 or WT-1 antibodies in 100 μl PBS were injected intravenously. At various times thereafter the animals were euthanized and their circulation was flushed with PBS for 5 minutes before removal and freezing of tumors and normal tissues as before. […] frozen sections were cut on a Tissuetek 2 cryostat (Baxter) and air-dried for 2 hours at room temperature. Slides were stored at -20° C. for up to 3 months before assay.
Indirect immunoperoxidase staining for rat IgG was adapted from a method described by Billington et al. (1986). Sections were allowed to return to room temperature, air dried for 30 minutes and fixed in acetone for 15 minutes. After rehydration in PBS for 5 minutes, sections were incubated in a humidified chamber for 45-60 minutes with primary antibodies, diluted optimally in PBS-0.2% BSA, (PBS-BSA). […]

## CN(C)[C@@H]1C(O)=C(C(N)=O)C(=O)[C@@]2(O)C(O)=C3C(=O)c4c(O)cccc4[C@@](C)(O)[C@H]3C[C@@H]12 [tetracycline-Hcl, tetracycline-HCI]
Oral administration before antibody injection
  localization of intravenously-injected anti-Ia^d antibody to colonic endothelial cells: abolished localization
oral, 1-3 weeks
  Ia^d expression in the colon and elsewhere in the gut: progressive diminution; also recorded: diminished Ia^d expression
  numbers of intravillous CD3-positive cells: dramatic decrease
